Reference: patent publication US5340800A, “Peptide medicaments for the treatment of disease” (priority 1992, dated 1994)
Like-named read-outs stand apart in the source and are kept apart here. No end group written: not given here.

Legend:
[1] = test system: polymorphonuclear leukocyte migration; experiment: Chemotaxis of polymorphonuclear leukocytes (trans-well, zymosan-activated human serum); assay type: cell-based; details: for % Inhibition of Migration (neutrophil chemotaxis): 0.5% zymosan-activated human serum
Protocol: The materials and methods for ascertaining the chemotactic inhibitory properties of peptides are generally known in the art, and the preferred procedure is described by Capsoni, et al., 1989, J. of Immunol. Meth., 120:125. Generally, chemotaxis is determined by positioning the leukocytes and a chemotactic substance on opposite sides of a membrane in appropriate culture media. The preferred apparatus for doing a chemotaxis assay is produced by Costar Corporation, Cambridge, Mass., and is termed the trans-well cell culture apparatus. […] If a substance is being tested for inhibitory activity this can be achieved by combining it with the leukocytes or the chemotactic substance.
The procedure of Capsoni, et al., above, was followed with the following modifications. Leukocytes may be isolated and labelled with ^111 Indium as described for the adhesion assay, above. The cells are resuspended after labelling in an appropriate cell culture medium at about 5×10^6 cells/ml. Next, a desired amount of the cell suspension is mixed with a predetermined amount of the peptide(s) to be tested for inhibitory activity, and the mixture added to an appropriate filter device. Three μm-pore membranes are situated in the wells of a 24 trans-well tissue culture plate. The cell/inhibitory peptide mixture is incubated for a short time at 37° C. to acclimate the cells to the membrane surface, and to provide sufficient time for them to settle onto the membrane surface. Next, inserts are set in wells containing cell culture media. The media contains zymosan-activated human serum at about 0.5%. Zymosan activation generates complement-derived chemotactic factors which attract the leukocytes through the pores of the membrane. This media was also prewarmed for an appropriate time prior to addition to the cell culture wells. After a 30 minute incubation period at 37° C., the number of leukocytes that have migrated through the membrane filter, in the presence or absence of CD18 peptides, is readily determined by counting the amount of ^111 Indium present in the media. This may be facilitated by adding an appropriate detergent at an appropriate concentration to the media in the wells prior to removing an aliquot for counting. In this way, the inhibitory activities of the peptide being tested could be determined.
Many of the materials and methods used to test the inhibitory activity of the CD18 peptides on the chemotactic response of the polymorphonuclear leukocytes are similar or identical to those used to perform the adhesion assays described in Example 1. Polymorphonuclear leukocytes were isolated and labelled with ^111 Indium as described before, and the cells were suspended in RPMI 1640 culture medium at a concentration of 5×10^6 /ml. Next, 75 μl of the cell suspension and 25 μl of media containing a desired concentration of a CD18 peptide were added to trans-well inserts, and the mixture was incubated at 37° C. for 10 minutes.
To the bottom wells of the 24-well plate 0.6 ml of media containing 0.5% zymosan-activated human serum was added. This solution was also warmed to 37° C. for 10 minutes prior to use.
Next, the assay was conducted by incubating the trans-well inserts containing the cell suspension with the desired CD18 peptide in the 24-well plates at 37° C. for 30 minutes. Subsequently, the inserts were removed, and 60 μl of a 10% sodium dodecyl sulphate solution was added to the wells of the 24-well plate. The plates were incubated with gentle shaking at room temperature for 15 minutes, and 110 μl aliquots were removed and the amount of ^111 Indium determined using a gamma-counter.

[2] = test system: polymorphonuclear leukocyte adhesion to endothelial cells activated with IL1; assay type: cell-based, human

For “IGWRNVTRLLVFATDDGFHFAGDGKLGAI [Peptide 4-29, NH2 --Ile--Gly--Trp--Arg--Asn--Val--Thr--Arg--Leu--Leu--Val--Phe--Ala--Thr--Asp--Asp--Gly--Phe--His--Phe--Ala--Gly--Asp--Gly--Lys--Leu--Gly--Ala--Ile--COOH]”, which “concentration of peak activity in chemotaxis inhibition” value ([1]; 6 donors, 10^-4 -10^-7) is on record?
Its value is 10^-5 M.

And the “inhibition of chemotaxis migration (in words)” value ([1]; 10^-4 -10^-5 M)?
Its value is “marked inhibition”.

What about the “% Inhibition of Migration (neutrophil chemotaxis)” value (“% Inhibition of Migration” below) ([1]; 10^-4 M, donor 140) of the same sequence?
The value was 83%.

And the “percent inhibition (-) or enhancement of polymorphonuclear leukocyte migration” value (“percent inhibition (-) or enhancement” below) ([1]; 10^-4 M, donor 195)?
Its value is -93%.

What about the “% Inhibition of Migration” value ([1]; 10^-4 M, donor 195) of the same sequence?
Its value is 76%.

What about the “% Inhibition of Migration” value ([1]; 10^-4 M, donor 279) of the same sequence?
Its value is 74%.

What about the “% Inhibition of Migration” value ([1]; 10^-4 M, donor 363) of the same sequence?
The value was 76%.

What about the “percent inhibition (-) or enhancement” value ([1]; 10^-4 M, donor 499) of the same sequence?
Its value is -87%.

And the “percent inhibition (-) or enhancement” value ([1]; 10^-4 M, donor 591)?
Its value is -74%.

What about the “percent inhibition (-) or enhancement” value ([1]; 10^-4 M, donor 593) of the same sequence?
Its value is -88%.

What about the “% Inhibition of Migration” value ([1]; 10^-5 M, donor 140) of the same sequence?
The value was 69%.

And the “% Inhibition of Migration” value ([1]; 10^-5 M, donor 169)?
The value was 75%.

And the “percent inhibition (-) or enhancement” value ([1]; 10^-5 M, donor 195)?
Its value is -93%.

And the “% Inhibition of Migration” value ([1]; 10^-5 M, donor 195)?
The value was 87%.

What about the “% Inhibition of Migration” value ([1]; 10^-5 M, donor 279) of the same sequence?
Its value is 49%.

What about the “% Inhibition of Migration” value ([1]; 10^-5 M, donor 359) of the same sequence?
Its value is 74%.

What about the “% Inhibition of Migration” value ([1]; 10^-5 M, donor 363) of the same sequence?
The value was 79%.

And the “percent inhibition (-) or enhancement” value ([1]; 10^-5 M, donor 499)?
Its value is -79%.

What about the “percent inhibition (-) or enhancement” value ([1]; 10^-5 M, donor 591) of the same sequence?
The value was -88%.

What about the “percent inhibition (-) or enhancement” value ([1]; 10^-5 M, donor 593) of the same sequence?
Its value is -88%.

And the “% Inhibition of Migration” value ([1]; 10^-6 M, donor 140)?
The value was 2%.

And the “percent inhibition (-) or enhancement” value ([1]; 10^-6 M, donor 195)?
The value was 11%.

And the “% Inhibition of Migration” value ([1]; 10^-6 M, donor 195)?
The value was 34%.

And the “% Inhibition of Migration” value ([1]; 10^-6 M, donor 279)?
The value was 17%.

What about the “% Inhibition of Migration” value ([1]; 10^-6 M, donor 363) of the same sequence?
Its value is 34%.

And the “percent inhibition (-) or enhancement” value ([1]; 10^-6 M, donor 499)?
The value was 0%.

And the “percent inhibition (-) or enhancement” value ([1]; 10^-6 M, donor 591)?
Its value is 0%.

What about the “percent inhibition (-) or enhancement” value ([1]; 10^-6 M, donor 593) of the same sequence?
The value was 4%.

And the “% Inhibition of Migration” value ([1]; 10^-7 M, donor 140)?
The value was 0%.

What about the “% Inhibition of Migration” value ([1]; 10^-7 M, donor 279) of the same sequence?
Its value is 0%.

What about the “inhibitory activity on chemotaxis (in words)” value ([1]; PMNs from 6 donors) of the same sequence?
The value was “significant activity being observed for all donors”.

What about the “Percent Change in PMN Adhesion to ECs activated with IL1” value (“Percent Change in PMN Adhesion” for short) ([2]; 10^-7 M, donor 155*, peptide 1 wk 4°) of the same sequence?
Its value is “+59%”.

And the “Percent Change in PMN Adhesion” value ([2]; 10^-7 M, donor 272*, peptide 1 wk 4°)?
Its value is “+2%”.

And the “Percent Change in PMN Adhesion” value ([2]; 10^-8 M, donor 108*, peptide frozen)?
The value was “+21%”.

What about the “Percent Change in PMN Adhesion” value ([2]; 10^-8 M, donor 489*, peptide frozen) of the same sequence?
The value was -3%.
